Measured values: publication PMC11811597, “Phenomics‐Based Discovery of Novel Orthosteric Choline Kinase Inhibitors” (Angewandte Chemie (International Ed. in English), 2025)
pKd: −log10 of the molar value.

What was measured:
[1] = test system: MCF7, MDA‐MB‐231, HEK293, HepG2, U2OS and K562 cells; assay: 72 h cell viability assay (Cell Titer-Glo); type: cell-based, human; settings: 0-50 μM
Excerpt: We compared morphological fingerprints of multiple parameters to assess overall biological similarity (Biol. Sim.) (Figure 1B).
A-366 and UNC0638 were purchased from Tocris. ARIAD and V-11-07-11 were purchased from Wuxi Apptec. UNC0737 and UNC0965 were synthesised as previously described.[1] Hemicholinium-3 and pyruvate kinase/lactic dehydrogenase enzymes were purchased from Sigma Aldrich. Aqueous and organic solvents were MS-grade and acquired by Sigma Aldrich unless stated otherwise.
MDA-MB-231, MCF7 and HEK293 cells were cultured in DMEM (Gibco, #11965092) supplemented with 10% FBS. K562 were cultured in IMDM (Gibco, #12440053) supplemented with 10% FBS. HepG2 were cultured in MEM (Gibco, #11095080) supplemented with 10 % FBS. […]
cultured in McCoy’s 5A (Sigma, M8403) supplemented with 10 % FBS and 1x GlutaMAX (Gibco, #35050061). Cells were maintained at 37 °C in a humidified 5% CO2 atmosphere. Peripheral blood mononuclear cells (PBMC) were isolated from healthy blood donors by density centrifugation.
MDA-MB-231, MCF7 or HEK293 cells (7.5 × 10^4 cells/mL) were each plated into x1 white 384-well polystyrene plate (Greiner Bio-One Ltd). A-366, […] and UNC0737 were directly added to each well of the cell line plates, at final concentrations 0-50 μM and incubated for 72 h at 37 °C/ 5% CO2.
Cell Titer-Glo® reagent was added to each well and total luminescence readings were performed within 15 min using the PHERAstar FSX (BMG Labtech). The cell viability results were normalised to the DMSO control and plotted using the sigmoidal dose-response (variable slope) equation in […]
Chemical Proteomics Drug Pulldown
For lysate generation MCF7 cells were grown until approximately 80% confluency before being pelleted and washed with PBS. […]
MDA-MB-231, […], HepG2, U2OS and K562 cells following treatment with A-366, UNC0638 and UNC0737 after 72 h measured by Cell Titer Glo assay (n=3). […]

CHKA [2] = biological target: T1, CHKA (Homo sapiens, UniProt P35790); assay: Differential scanning fluorimetry (DSF); type: binding; set-up: host or cells: E. coli BL21(DE3); settings: 10 µM compound, 2 µM CHKA
Method: mM NaCl, 5% glycerol, 500 mM imidazole, 0.5% TCEP, pH 7.5), the eluent was concentrated, and further purified by size exclusion chromatography using a HiLoad 16/600 Superdex S200 column (Cytiva) pre-equilibrated in Buffer C (20 mM HEPES, 150 mM NaCl, pH 7.5). The resulting protein purity was assessed by SDS-PAGE, and protein identity was confirmed by tryptic digest analysis. Protein concentration was determined to be 35.5 mg/mL, and was calculated using a theoretical molar extinction coefficient of 58830 M-1cm-1 as determined by ProtParam.[5] […]
Differential Scanning Fluorimetry (DSF)
DSF buffer (20 mM HEPES, 150 mM NaCl, 0.5 mM TCEP, pH 7.5) containing 5x SYPRO Orange (Thermo Fisher Scientific) and CHKA (2 µM) was incubated with 10 µM compound at 2% DMSO final concentration in a 96-well semi-skirted real time PCR plate. Fluorescence was measured in each well over a 40-80 °C gradient using a Stratagen MX3005p qPCR instrument (Agilent Technologies). […]

[3] = test system: primary human cell‐based tissue and disease models; assay: BioMAP Diversity PLUS panel; settings: 12 systems, Pearson's correlation >0.7
Excerpt: Having confirmed that UNC0638 and UNC0737 are potent bona fide CHKA inhibitors, we next turned our attention to further investigate the role of CHKA in cellular signalling. While CHKA has been studied extensively in the context of malignant disease, there has been a growing acknowledgment of its relevance in immune metabolism.[9, 10] […] We profiled UNC0638 and UNC0737 alongside the orthogonal CHKA inhibitors V‐11‐0711 and ARIAD against the BioMAP Diversity PLUS panel (Figures S7).[24] This set comprises 148 distinct biomarkers across 12 systems, including panels for systemic immune responses. […] The decrease in IgG secretion was accompanied by a reduction in stimulation‐induced B cell maturation into CD27^+IgD^− memory CD19^+ B cells (Figure 4D). […]
consecutive concentrations change in the same direction relative to vehicle controls, are outside of the significance envelope, and have at least one concentration with an effect size > 20% (|log10ratio| > 0.1). Biomarker key activities are described as modulated if these activities increase in some systems, but decrease in others. Cytotoxicity is indicated on the profile plot by a thin black arrow above the x- […]
Cytotoxicity and antiproliferative arrows only require one concentration to meet the indicated threshold for profile annotation. […]

CHKA [4] = biological target: T1, CHKA; assay: Isothermal calorimetry (ITC); type: binding; set-up: host or cells: E. coli BL21(DE3)
Method: mM NaCl, 5% glycerol, 500 mM imidazole, 0.5% TCEP, pH 7.5), the eluent was concentrated, and further purified by size exclusion chromatography using a HiLoad 16/600 Superdex S200 column (Cytiva) pre-equilibrated in Buffer C (20 mM HEPES, 150 mM NaCl, pH 7.5). The resulting protein purity was assessed by SDS-PAGE, and protein identity was confirmed by tryptic digest analysis. Protein concentration was determined to be 35.5 mg/mL, and was calculated using a theoretical molar extinction coefficient of 58830 M-1cm-1 as determined by ProtParam.[5]
Isothermal Calorimetry (ITC)
ITC experiments were performed in a buffer containing 20 mM HEPES pH 7.5 and 200 mM NaCl, using an VP-ITC microcalorimeter (MicroCal) at 15 °C. The protein concentration was 200 µM and compounds were tested at 20 µM. The titrations were conducted using an initial injection of 4 μL followed by further 29 injections of 8 μL each. Thermodynamic parameters were calculated using ΔG = ΔH − TΔS = −RT ln KB, where ΔG, ΔH, and ΔS are the changes in free energy, enthalpy, and entropy of binding, respectively. Single binding models were employed to fit the data. […]

T1 sequence (P35790 75-457 limits assumed): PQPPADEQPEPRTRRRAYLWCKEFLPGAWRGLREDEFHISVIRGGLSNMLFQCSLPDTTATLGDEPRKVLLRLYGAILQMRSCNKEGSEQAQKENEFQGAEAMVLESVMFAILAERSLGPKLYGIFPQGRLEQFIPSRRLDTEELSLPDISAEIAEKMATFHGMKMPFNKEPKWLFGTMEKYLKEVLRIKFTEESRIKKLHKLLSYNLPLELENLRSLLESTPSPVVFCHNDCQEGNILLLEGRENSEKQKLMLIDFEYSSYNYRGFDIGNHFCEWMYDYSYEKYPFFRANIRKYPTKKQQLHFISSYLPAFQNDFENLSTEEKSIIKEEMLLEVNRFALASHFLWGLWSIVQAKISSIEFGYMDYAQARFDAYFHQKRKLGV

| Compound | effect on cell viability [1] | thermal stabilisation of CHKA (DSF) (CHKA [2]) | clustering of overall BioMAP responses across all biomarkers [3] | pKd (CHKA [4]) |
| --- | --- | --- | --- | --- |
| COc1cc2c(cc1OCCCN1CCCC1)N=C(N)C21CCC1 [A‐366] | less efficient in inducing cancer cell death | not | did not exhibit any overlap | – |
| COc1cc2nc(N3CCCN(C)CC3)nc(NC3CCN(Cc4ccccc4)CC3)c2cc1OC [BIX‐01294] | – | exhibited CHKA stabilisation albeit to lesser degree than UNC0737 | – | – |
| C[N+]1(C)CCOC(O)(c2ccc(-c3ccc(C4(O)C[N+](C)(C)CCO4)cc3)cc2)C1 (stereo not drawn) [HC3, hemicholinium‐3] | – | – | – | 7.39 |
| COc1cc2c(NC3CCN(C(C)C)CC3)nc(N3CCC(F)(F)CC3)nc2cc1OCCCN1CCCC1 [UNC0642] | – | exhibited CHKA stabilisation albeit to lesser degree than UNC0737 | – | – |
